ChEMBL document CHEMBL3045651, “Nymania-3: a bioactive triterpenoid from Dysoxylum malabaricum” (1999)

What was measured:
Assay type in all cases: functional
Olepa ricini [1] = assay: Antifeedant activity against Olepa ricini fed on compound pre-treated castor leaves assessed as percent feeding index at 1 ug/cm2 by dual choice leaf disk method
Olepa ricini [2] = assay: Antifeedant activity against Olepa ricini fed on compound pre-treated castor leaves assessed as insect mortality at 0.5 ug/cm2 by dual choice leaf disk method (reference value: 4%); settings: foliar
Olepa ricini [3] = assay: Antifeedant activity against Olepa ricini fed on compound pre-treated castor leaves assessed as duration of development of pupa at 0.5 ug/cm2 by dual choice leaf disk method (reference value: 7.5 +/- 0.3 days)
Olepa ricini [4] = assay: Antifeedant activity against Olepa ricini fed on compound pre-treated castor leaves assessed as duration of development of third-instar larvae at 0.5 ug/cm2 by dual choice leaf disk method (reference value: 4.5 +/- 0.7 days)
Olepa ricini [5] = assay: Antifeedant activity against Olepa ricini fed on compound pre-treated castor leaves assessed as percent feeding index at 5 ug/cm2 by dual choice leaf disk method
Olepa ricini [6] = assay: Antifeedant activity against Olepa ricini fed on compound pre-treated castor leaves assessed as duration of development of fifth-instar larvae at 0.5 ug/cm2 by dual choice leaf disk method (reference value: 4.5 +/- 0.4 days)
Olepa ricini [7] = assay: Antifeedant activity against Olepa ricini fed on compound pre-treated castor leaves assessed as pupal weight at 0.5 ug/cm2 by dual choice leaf disk method (reference value: 476 +/- 10.6 mg)
Olepa ricini [8] = assay: Antifeedant activity against Olepa ricini fed on compound pre-treated castor leaves assessed as percent feeding index at 10 ug/cm2 by dual choice leaf disk method
Olepa ricini [9] = assay: Antifeedant activity against Olepa ricini fed on compound pre-treated castor leaves assessed as duration of development of fourth-instar larvae at 0.5 ug/cm2 by dual choice leaf disk method (reference value: 7.5 +/- 0.2 days)
Olepa ricini [10] = assay: Antifeedant activity against Olepa ricini fed on compound pre-treated castor leaves assessed as percent feeding index at 50 ug/cm2 by dual choice leaf disk method
Olepa ricini [11] = assay: Antifeedant activity against Olepa ricini fed on compound pre-treated castor leaves assessed as duration of development of fifth-instar larvae at 1 ug/cm2 by dual choice leaf disk method (reference value: 4.5 +/- 0.4 days)
Olepa ricini [12] = assay: Antifeedant activity against Olepa ricini fed on compound pre-treated castor leaves assessed as insect mortality at 1 ug/cm2 by dual choice leaf disk method (reference value: 4%); settings: foliar
Olepa ricini [13] = assay: Antifeedant activity against Olepa ricini fed on compound pre-treated castor leaves assessed as pupal weight at 1 ug/cm2 by dual choice leaf disk method (reference value: 476 +/- 10.6 mg)
Olepa ricini [14] = assay: Antifeedant activity against Olepa ricini fed on compound pre-treated castor leaves assessed as duration of development of fourth-instar larvae at 1 ug/cm2 by dual choice leaf disk method (reference value: 7.5 +/- 0.2 days)
Olepa ricini [15] = assay: Antifeedant activity against Olepa ricini fed on compound pre-treated castor leaves assessed as duration of development of third-instar larvae at 1 ug/cm2 by dual choice leaf disk method (reference value: 4.5 +/- 0.7 days)
Olepa ricini [16] = assay: Antifeedant activity against Olepa ricini fed on compound pre-treated castor leaves assessed as duration of development of pupa at 1 ug/cm2 by dual choice leaf disk method (reference value: 7.5 +/- 0.3 days)

SMILES	FI (Olepa ricini [1]) [%]	mortality at 0.5 µg/cm2 (Olepa ricini [2]) [%]	Time (Olepa ricini [3]) [days]	Time (Olepa ricini [4]) [days]	FI (Olepa ricini [5]) [%]	Time (Olepa ricini [6]) [days]	Activity (Olepa ricini [7]) [mg]	FI (Olepa ricini [8]) [%]	Time (Olepa ricini [9]) [days]	FI (Olepa ricini [10]) [%]	Time (Olepa ricini [11]) [days]	mortality at 1 µg/cm2 (Olepa ricini [12]) [%]	Activity (Olepa ricini [13]) [mg]	Time (Olepa ricini [14]) [days]	Time (Olepa ricini [15]) [days]	Time (Olepa ricini [16]) [days]
C/C=C(\C)C(=O)O[C@H]1C[C@@H](OC(C)=O)[C@@]2(C(=O)OC)CO[C@H]3[C@@H](O)[C@@](C)([C@]45O[C@@]4(C)[C@H]4C[C@@H]5O[C@@H]5OC=C[C@@]54O)[C@H]4[C@]1(CO[C@]4(O)C(=O)OC)[C@@H]32 [AZADIRACTIN]	20.8	16	7.4	7	15.6	5.7	344	12.5	8.6	10	–	–	–	–	–	–
C=C1[C@@H]([C@@]2(C)C=CC(=O)OC(C)(C)[C@@H]2CC(=O)OC)[C@@H](OC(C)=O)[C@H](OC(C)=O)[C@@]2(C)[C@@H](c3ccoc3)C[C@H]3O[C@]132 [NYMANIA]	33.5	–	–	–	30	–	–	23.4	–	19.5	5.3	16	428	8.8	6.8	7.4
